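48-hour exposure; five concentrations; linearly interpolated endpoints. Here, GI50 denotes the concentration required for 50% inhibition of growth.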 Activity calls are given as the source filed them. Rule as the data show it: active = GI50 up to about 1.1 µM and inactive = higher. Some results are limits rather than exact numbers.

Test systems include 786-0; CCRF-CEM; DMS-114; HCT-15; IGROV-1; KM12; M19-MEL; NCI-H226; NCI-H23; NCI-H460; OVCAR-3; OVCAR-8; RPMI-8226; SN12C; UO-31; HOP-92; SK-MEL-2.
What all share (experiment): NCI-60 cell line screen, 48 h

For `CC(=O)OC1C=CC2CCN3C(=O)c4cc5c(cc4[C@H]1C23)OCO5` (stereo not given in full), the GI50 was > 100 µM (inactive) in the test on 786-0; > 100 µM (inactive) in the test on CCRF-CEM; > 100 µM (inactive) in the test on DMS-114; greater than 100 µM in the test on HCT-15; > 100 µM (inactive) with IGROV-1; > 100 µM (inactive) in the test on KM12. Further, the GI50 in the test on M19-MEL, in the test on NCI-H226, in the test with NCI-H23, with NCI-H460, with OVCAR-3 and with OVCAR-8 was > 100 µM (inactive) throughout. The GI50 in the test on RPMI-8226, with SN12C and in the test with UO-31 was > 100 µM (inactive) throughout.
Turning to `C#CC[N+](C)(CC#C)CC#C`, the GI50 with 786-0 is > 100 µM (inactive); in the test on CCRF-CEM, > 100 µM (inactive); in the test on DMS-114, > 100 µM (inactive); with HCT-15, greater than 100 µM; in the test with HOP-92 it was > 100 µM (inactive); in the test with IGROV-1 it was > 100 µM (inactive). Besides, the GI50 in the test with KM12, in the test with M19-MEL, in the test with NCI-H23, in the test on NCI-H460, with OVCAR-3 and in the test with OVCAR-8 was > 100 µM (inactive) each time. Also, the GI50 in the test on RPMI-8226, in the test with SK-MEL-2, in the test on SN12C and in the test on UO-31 was > 100 µM (inactive) in each case.
With `CCc1ccccc1-n1c2nc(=O)n(C)c(=O)c-2nc2ccccc21`, the GI50 is 7.21 µM (inactive) in the test on 786-0; 11.2 µM (inactive) in the test with CCRF-CEM; 3.83 µM (inactive) with DMS-114; 10 µM in the test on HCT-15; 17.5 µM (inactive) in the test on IGROV-1; 10.8 µM (inactive) with KM12. The GI50 in the test on M19-MEL is 1.85 µM (inactive); in the test with NCI-H226, 18.4 µM (inactive); in the test on NCI-H23 it was 4.03 µM (inactive); in the test with NCI-H460, 4.55 µM (inactive); in the test on OVCAR-3 it was 2.49 µM (inactive); in the test with OVCAR-8, 5.96 µM (inactive). Moreover, the GI50 was 12.6 µM (inactive) with RPMI-8226, 17.4 µM (inactive) in the test with SK-MEL-2, 13.5 µM (inactive) in the test with SN12C and 21.5 µM (inactive) in the test with UO-31.
With `CC1(C)CC(C2CC(C)(C)CC(C)(C)[C@H]2O)[C@@H](O)C(C)(C)C1` (stereo not given in full), the GI50 with 786-0 is > 100 µM (inactive); in the test on CCRF-CEM it was > 100 µM (inactive); in the test with DMS-114, > 100 µM (inactive); in the test with HCT-15, greater than 100 µM; with IGROV-1, > 100 µM (inactive); in the test on KM12, > 100 µM (inactive). Moreover, the GI50 in the test on M19-MEL, in the test with NCI-H226, in the test with NCI-H23, in the test with NCI-H460, with OVCAR-3 and in the test on OVCAR-8 was > 100 µM (inactive) throughout. The GI50 with RPMI-8226, in the test with SN12C and with UO-31 was > 100 µM (inactive) in each case.
`Cc1nc(Nc2ccccc2)sc1C(=O)CC(=O)C(=O)Nc1c(C(C)C)cccc1C(C)C`: the GI50 in the test with 786-0 was > 100 µM (inactive); with CCRF-CEM, 89.7 µM (inactive); with DMS-114, 81.7 µM (inactive); in the test with HCT-15 it was 98.9 µM; in the test on HOP-92, 32.6 µM (inactive); in the test with IGROV-1 it was > 100 µM (inactive). Further, the GI50 is > 100 µM (inactive) in the test with KM12; > 100 µM (inactive) in the test with M19-MEL; > 100 µM (inactive) with NCI-H226; 85.5 µM (inactive) in the test on NCI-H23; > 100 µM (inactive) with NCI-H460; 97.9 µM (inactive) in the test with OVCAR-3. Further, the GI50 in the test with OVCAR-8 is > 100 µM (inactive); in the test with SK-MEL-2, > 100 µM (inactive); in the test with SN12C, > 100 µM (inactive); in the test with UO-31 it was 78.5 µM (inactive).
For `O/N=C1/C(=C/c2ccc(Br)cc2)CCCC1C(NO)c1ccc(Br)cc1` (stereo not given), the GI50 is 16.8 µM (inactive) with 786-0; 18 µM (inactive) in the test on CCRF-CEM; 13.5 µM (inactive) with DMS-114; 17.3 µM with HCT-15; 12.6 µM (inactive) in the test on HOP-92; 17.1 µM (inactive) in the test with IGROV-1. The GI50 in the test with KM12 was 19.2 µM (inactive); with M19-MEL, 17 µM (inactive); in the test on NCI-H23 it was > 10 µM (inactive); in the test on NCI-H460, > 10 µM (inactive); in the test on OVCAR-3, 17.4 µM (inactive); with OVCAR-8 it was 16.1 µM (inactive). Besides, the GI50 is 17.8 µM (inactive) with RPMI-8226, 16.7 µM (inactive) in the test on SK-MEL-2, 12.4 µM (inactive) in the test with SN12C and 16 µM (inactive) with UO-31.
Turning to `Cc1ccc(C2=C(c3ccccc3)C(O)(c3ccc(C)cc3)C(c3ccccc3)=C2c2ccc(C)cc2)cc1`, the GI50 in the test on 786-0 is > 100 µM (inactive); with CCRF-CEM it was > 100 µM (inactive); in the test with DMS-114, > 100 µM (inactive); with HCT-15, greater than 100 µM; with HOP-92 it was > 100 µM (inactive); with IGROV-1 it was > 100 µM (inactive). The GI50 in the test on KM12 was > 100 µM (inactive); in the test with M19-MEL, > 100 µM (inactive); with NCI-H23 it was 1.91 µM (inactive); in the test on NCI-H460, > 100 µM (inactive); in the test on OVCAR-3, 69 µM (inactive); in the test with OVCAR-8, > 100 µM (inactive). The GI50 in the test on RPMI-8226 was 54.6 µM (inactive); in the test with SK-MEL-2, > 100 µM (inactive); in the test on SN12C, > 100 µM (inactive).
Regarding `Cc1cc(NS(=O)(=O)c2ccc(Nc3c4ccccc4nc4c(C(=O)NCCN(C)C)ccc(Cl)c34)cc2)no1`, the GI50 in the test on 786-0 was 4.41 µM (inactive); in the test with CCRF-CEM it was 1.28 µM (inactive); in the test with DMS-114, 0.867 µM (active); with HCT-15, 5.14 µM; in the test with IGROV-1, 3.56 µM (inactive); in the test on KM12, 4.91 µM (inactive). Moreover, the GI50 in the test on M19-MEL was 3.39 µM (inactive); in the test with NCI-H226, 1.85 µM (inactive); in the test on NCI-H23, 3.05 µM (inactive); with NCI-H460, 1.36 µM (inactive); in the test on OVCAR-3 it was 11.7 µM (inactive); in the test on OVCAR-8, 1.12 µM (active). For the same compound, the GI50 is 6.1 µM (inactive) in the test with SK-MEL-2, 3.88 µM (inactive) in the test with SN12C and 3.23 µM (inactive) in the test on UO-31.
As for `CCCCCCCCCCNCCSSCc1ccc(Cl)cc1`, the GI50 in the test on 786-0 is 5.71 µM (inactive); in the test with CCRF-CEM, 1.64 µM (inactive); with DMS-114, 1.57 µM (inactive); in the test with HCT-15, 2.48 µM; in the test with IGROV-1, 2.94 µM (inactive); with KM12 it was 1.36 µM (inactive). Also, the GI50 with M19-MEL is 1.22 µM (inactive); in the test on NCI-H460 it was 3.25 µM (inactive); in the test on OVCAR-3, 1.96 µM (inactive); in the test with OVCAR-8, 2.07 µM (inactive); in the test with SK-MEL-2 it was 0.352 µM (active); in the test on SN12C, 1.91 µM (inactive). The GI50 in the test with UO-31 is 2.25 µM (inactive).
With `CC1=C(/C(C)=N/NC(=O)c2ccccc2O)C(C)C(/C(C)=N/NC(=O)c2ccccc2O)=C(C)N1`, the GI50 in the test with 786-0 is 18.5 µM (inactive); in the test on DMS-114, 16.2 µM (inactive); in the test on HCT-15, 22.8 µM; with HOP-92, 28.8 µM (inactive); in the test with IGROV-1, 10.6 µM (inactive); with KM12 it was 31.4 µM (inactive). Further, the GI50 in the test on M19-MEL was 18.7 µM (inactive); with NCI-H23, 13 µM (inactive); in the test with NCI-H460, 18 µM (inactive); with OVCAR-3, 12.2 µM (inactive); in the test on OVCAR-8, 16.8 µM (inactive); with SN12C, 45.1 µM (inactive). For the same compound, in the test with UO-31, the GI50 is 15.5 µM (inactive).
